What all share (experiment): KINOMEscan
Common to all, as to type: binding

The target of one test is T1, BMX (Homo sapiens, UniProt P51813).
T1 construct: purchased Eurofins DiscoverX KINOMEscan
T1 sequence (P51813 1-675): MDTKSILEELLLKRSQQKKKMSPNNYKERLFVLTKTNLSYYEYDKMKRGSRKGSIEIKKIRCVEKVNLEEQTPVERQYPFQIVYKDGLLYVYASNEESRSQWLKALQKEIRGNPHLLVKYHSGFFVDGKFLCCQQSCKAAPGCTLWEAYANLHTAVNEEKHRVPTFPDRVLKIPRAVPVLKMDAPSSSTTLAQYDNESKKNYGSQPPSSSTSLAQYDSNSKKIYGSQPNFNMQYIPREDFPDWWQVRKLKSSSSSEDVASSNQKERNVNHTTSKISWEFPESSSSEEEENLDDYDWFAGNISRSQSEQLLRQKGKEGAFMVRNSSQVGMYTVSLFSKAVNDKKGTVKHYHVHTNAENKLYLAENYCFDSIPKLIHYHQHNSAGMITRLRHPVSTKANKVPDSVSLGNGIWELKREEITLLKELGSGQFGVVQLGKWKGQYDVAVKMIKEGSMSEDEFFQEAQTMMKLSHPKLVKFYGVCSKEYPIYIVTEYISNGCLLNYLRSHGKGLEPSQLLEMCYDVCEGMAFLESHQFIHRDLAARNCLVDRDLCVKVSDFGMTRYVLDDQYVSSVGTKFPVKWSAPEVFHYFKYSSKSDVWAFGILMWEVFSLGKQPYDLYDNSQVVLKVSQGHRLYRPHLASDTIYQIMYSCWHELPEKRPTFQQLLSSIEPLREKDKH
Conditions: read-out: % control activity remaining.

Test [1] concerns the target T2, RSK4(Kin.Dom.2-C-terminal) (Homo sapiens, UniProt Q9UK32).
T2 construct: RSK4(Kin.Dom.2-C-terminal); purchased Eurofins DiscoverX KINOMEscan
T2 sequence (Q9UK32 426-683 limits assumed): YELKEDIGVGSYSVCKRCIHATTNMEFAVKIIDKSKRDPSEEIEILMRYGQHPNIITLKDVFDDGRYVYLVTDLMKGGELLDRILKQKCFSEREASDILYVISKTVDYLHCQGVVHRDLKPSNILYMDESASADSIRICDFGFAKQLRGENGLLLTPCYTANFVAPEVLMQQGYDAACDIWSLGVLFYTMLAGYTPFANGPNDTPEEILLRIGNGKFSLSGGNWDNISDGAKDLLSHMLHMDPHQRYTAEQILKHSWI
Conditions: read-out: % control activity remaining.

The target of the next test is T3, PDGFRB (Homo sapiens, UniProt P09619).
T3 construct: purchased Eurofins DiscoverX KINOMEscan
T3 sequence (P09619 33-1106): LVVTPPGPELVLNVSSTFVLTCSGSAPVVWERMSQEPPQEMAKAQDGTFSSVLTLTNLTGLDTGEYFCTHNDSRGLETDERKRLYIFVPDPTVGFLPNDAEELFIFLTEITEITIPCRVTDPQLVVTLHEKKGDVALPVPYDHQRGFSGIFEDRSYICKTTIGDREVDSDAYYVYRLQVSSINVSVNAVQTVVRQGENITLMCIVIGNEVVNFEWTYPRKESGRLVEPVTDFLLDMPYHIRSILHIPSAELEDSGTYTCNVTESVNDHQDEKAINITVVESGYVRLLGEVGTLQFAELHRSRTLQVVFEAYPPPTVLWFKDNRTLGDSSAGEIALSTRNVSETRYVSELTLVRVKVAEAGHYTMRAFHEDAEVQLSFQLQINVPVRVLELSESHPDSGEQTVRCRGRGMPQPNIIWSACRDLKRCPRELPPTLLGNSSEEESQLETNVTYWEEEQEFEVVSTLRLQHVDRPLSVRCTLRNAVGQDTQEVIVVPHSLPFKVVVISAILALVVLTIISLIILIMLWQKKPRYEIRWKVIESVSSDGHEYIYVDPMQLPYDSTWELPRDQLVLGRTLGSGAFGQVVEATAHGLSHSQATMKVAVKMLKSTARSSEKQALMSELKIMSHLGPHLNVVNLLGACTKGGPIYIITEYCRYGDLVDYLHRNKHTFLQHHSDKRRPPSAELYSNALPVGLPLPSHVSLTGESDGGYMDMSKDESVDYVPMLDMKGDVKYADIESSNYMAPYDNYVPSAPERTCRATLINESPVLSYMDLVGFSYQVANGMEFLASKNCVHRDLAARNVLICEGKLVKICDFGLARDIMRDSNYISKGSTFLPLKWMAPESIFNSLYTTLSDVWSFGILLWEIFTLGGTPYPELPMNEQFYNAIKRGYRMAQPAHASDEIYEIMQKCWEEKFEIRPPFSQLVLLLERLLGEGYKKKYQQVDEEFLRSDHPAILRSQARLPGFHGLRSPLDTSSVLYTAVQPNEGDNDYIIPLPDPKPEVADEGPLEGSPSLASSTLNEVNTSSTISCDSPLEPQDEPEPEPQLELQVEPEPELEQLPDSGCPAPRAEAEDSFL
The settings on record: for remaining binding at 1 µM: read-out: % control activity remaining.

In the next test the target is T4, TNIK (Homo sapiens, UniProt Q9UKE5).
T4 construct: purchased Eurofins DiscoverX KINOMEscan
T4 sequence (Q9UKE5 whole entry): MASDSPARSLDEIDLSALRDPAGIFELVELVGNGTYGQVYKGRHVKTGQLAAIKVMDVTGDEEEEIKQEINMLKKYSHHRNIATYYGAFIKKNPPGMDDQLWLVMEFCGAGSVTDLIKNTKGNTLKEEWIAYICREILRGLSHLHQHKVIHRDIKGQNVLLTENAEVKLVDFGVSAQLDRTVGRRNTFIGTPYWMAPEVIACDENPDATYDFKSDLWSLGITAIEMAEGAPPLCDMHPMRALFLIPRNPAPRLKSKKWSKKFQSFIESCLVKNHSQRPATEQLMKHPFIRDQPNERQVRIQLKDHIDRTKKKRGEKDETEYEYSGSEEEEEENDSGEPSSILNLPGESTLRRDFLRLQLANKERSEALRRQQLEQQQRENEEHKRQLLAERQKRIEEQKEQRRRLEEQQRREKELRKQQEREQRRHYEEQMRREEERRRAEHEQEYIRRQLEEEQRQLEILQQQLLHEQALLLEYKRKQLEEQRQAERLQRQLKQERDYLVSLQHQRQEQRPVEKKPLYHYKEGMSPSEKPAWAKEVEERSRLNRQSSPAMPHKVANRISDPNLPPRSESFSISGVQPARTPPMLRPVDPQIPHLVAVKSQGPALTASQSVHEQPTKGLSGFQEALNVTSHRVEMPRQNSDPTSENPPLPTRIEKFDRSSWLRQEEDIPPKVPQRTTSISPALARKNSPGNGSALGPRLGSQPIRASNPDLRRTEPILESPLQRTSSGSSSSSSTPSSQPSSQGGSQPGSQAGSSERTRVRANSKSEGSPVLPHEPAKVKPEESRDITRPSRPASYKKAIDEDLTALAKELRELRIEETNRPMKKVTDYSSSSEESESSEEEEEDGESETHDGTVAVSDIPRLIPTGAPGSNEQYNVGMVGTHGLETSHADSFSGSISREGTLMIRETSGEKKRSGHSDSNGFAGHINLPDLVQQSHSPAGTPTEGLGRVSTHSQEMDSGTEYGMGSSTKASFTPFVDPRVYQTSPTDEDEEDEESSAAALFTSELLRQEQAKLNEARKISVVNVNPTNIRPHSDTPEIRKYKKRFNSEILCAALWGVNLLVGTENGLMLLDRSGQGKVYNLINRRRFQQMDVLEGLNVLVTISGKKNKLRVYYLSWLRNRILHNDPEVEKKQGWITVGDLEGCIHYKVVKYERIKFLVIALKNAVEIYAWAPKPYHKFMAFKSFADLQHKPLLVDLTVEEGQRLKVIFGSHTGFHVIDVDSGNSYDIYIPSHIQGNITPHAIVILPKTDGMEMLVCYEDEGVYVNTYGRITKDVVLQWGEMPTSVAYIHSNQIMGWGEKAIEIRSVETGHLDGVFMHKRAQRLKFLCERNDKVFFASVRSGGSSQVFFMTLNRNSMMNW
Conditions: read-out: % control activity remaining.

In another test the target is T5, EGFR(T790M) (Homo sapiens, UniProt P00533, T790M).
T5 construct: purchased Eurofins DiscoverX KINOMEscan
T5 sequence (P00533 25-1210 T790M limits assumed): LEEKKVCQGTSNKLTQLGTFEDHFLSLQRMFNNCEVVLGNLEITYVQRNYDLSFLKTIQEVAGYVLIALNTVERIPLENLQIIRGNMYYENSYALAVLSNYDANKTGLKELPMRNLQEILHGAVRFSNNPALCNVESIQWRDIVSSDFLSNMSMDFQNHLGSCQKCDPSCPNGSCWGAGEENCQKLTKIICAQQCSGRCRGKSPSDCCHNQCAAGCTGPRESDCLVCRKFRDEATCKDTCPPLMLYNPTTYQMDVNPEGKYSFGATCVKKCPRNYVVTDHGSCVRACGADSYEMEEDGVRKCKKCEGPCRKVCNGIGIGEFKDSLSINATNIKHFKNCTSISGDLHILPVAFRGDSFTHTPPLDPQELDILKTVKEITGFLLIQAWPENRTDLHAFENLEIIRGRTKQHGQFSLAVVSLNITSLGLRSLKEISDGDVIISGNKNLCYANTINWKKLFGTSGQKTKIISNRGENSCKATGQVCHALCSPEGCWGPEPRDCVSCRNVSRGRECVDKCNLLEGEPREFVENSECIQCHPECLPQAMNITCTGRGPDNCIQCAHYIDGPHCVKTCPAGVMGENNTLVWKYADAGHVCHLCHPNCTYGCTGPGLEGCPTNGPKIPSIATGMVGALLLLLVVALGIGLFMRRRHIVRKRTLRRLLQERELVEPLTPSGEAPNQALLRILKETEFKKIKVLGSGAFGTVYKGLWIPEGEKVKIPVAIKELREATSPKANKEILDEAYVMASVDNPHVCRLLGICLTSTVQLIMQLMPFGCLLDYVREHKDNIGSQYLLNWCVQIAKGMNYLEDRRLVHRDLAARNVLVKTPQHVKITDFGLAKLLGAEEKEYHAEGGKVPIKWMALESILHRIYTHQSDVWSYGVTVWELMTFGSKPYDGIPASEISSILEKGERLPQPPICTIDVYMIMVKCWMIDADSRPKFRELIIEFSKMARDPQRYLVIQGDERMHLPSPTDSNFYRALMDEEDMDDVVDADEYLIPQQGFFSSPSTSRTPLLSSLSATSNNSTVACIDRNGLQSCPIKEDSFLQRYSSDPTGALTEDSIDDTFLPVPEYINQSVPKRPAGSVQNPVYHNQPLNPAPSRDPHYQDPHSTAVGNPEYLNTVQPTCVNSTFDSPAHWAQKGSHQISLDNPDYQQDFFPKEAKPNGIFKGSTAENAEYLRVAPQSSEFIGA
Conditions: read-out: % control activity remaining.

A further test addresses T6, PRKX (Homo sapiens, UniProt P51817).
T6 construct: purchased Eurofins DiscoverX KINOMEscan
T6 sequence (P51817 1-358): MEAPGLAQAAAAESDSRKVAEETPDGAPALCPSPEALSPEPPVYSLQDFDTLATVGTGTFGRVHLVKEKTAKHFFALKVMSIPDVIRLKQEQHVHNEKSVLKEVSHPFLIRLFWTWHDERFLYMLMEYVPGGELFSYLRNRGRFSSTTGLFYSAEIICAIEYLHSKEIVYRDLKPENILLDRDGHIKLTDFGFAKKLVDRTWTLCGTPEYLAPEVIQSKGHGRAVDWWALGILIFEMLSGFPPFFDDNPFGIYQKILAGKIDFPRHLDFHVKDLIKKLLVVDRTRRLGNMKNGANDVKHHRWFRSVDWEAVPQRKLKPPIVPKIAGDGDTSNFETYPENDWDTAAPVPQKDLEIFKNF
Conditions: read-out: % control activity remaining.

Test [2] addresses T7, RSK1(Kin.Dom.2-C-terminal) (Homo sapiens, UniProt Q15418).
T7 construct: RSK1(Kin.Dom.2-C-terminal); purchased Eurofins DiscoverX KINOMEscan
The settings on record: read-out: % control activity remaining.

A further test addresses T8, NEK11 (Homo sapiens, UniProt Q8NG66).
T8 construct: purchased Eurofins DiscoverX KINOMEscan
T8 sequence (Q8NG66 1-645): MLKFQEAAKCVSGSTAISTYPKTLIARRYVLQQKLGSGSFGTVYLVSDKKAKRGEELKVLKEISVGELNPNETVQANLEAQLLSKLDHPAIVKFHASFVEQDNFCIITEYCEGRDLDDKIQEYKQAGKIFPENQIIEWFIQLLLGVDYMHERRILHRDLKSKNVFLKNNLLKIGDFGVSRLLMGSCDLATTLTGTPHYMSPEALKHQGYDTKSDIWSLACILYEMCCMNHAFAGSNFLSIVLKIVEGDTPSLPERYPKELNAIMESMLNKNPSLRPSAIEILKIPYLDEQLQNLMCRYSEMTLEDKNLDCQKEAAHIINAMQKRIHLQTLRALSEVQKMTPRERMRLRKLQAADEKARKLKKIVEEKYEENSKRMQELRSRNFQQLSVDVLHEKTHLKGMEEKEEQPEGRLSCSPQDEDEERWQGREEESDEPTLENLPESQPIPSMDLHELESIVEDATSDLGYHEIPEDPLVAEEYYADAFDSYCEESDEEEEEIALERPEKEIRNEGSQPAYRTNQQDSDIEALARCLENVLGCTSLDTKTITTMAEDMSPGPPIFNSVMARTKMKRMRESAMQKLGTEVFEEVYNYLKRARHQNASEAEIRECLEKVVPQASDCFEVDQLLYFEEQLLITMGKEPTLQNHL
Conditions: read-out: % control activity remaining.

Another test concerns the target T9, CDK7 (Homo sapiens, UniProt P50613).
T9 construct: purchased Eurofins DiscoverX KINOMEscan
Conditions: read-out: % control activity remaining.

A value given as a limit tells only on which side of the number the result lay.

T7 sequence (Q15418 418-675 limits assumed): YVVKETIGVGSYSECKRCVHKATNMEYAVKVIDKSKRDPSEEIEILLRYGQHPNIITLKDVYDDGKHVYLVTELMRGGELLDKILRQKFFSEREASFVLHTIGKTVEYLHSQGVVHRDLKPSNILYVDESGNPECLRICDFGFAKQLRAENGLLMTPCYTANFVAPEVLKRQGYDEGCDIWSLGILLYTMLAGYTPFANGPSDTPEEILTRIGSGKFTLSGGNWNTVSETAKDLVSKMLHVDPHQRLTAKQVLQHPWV
T9 sequence (P50613 whole entry): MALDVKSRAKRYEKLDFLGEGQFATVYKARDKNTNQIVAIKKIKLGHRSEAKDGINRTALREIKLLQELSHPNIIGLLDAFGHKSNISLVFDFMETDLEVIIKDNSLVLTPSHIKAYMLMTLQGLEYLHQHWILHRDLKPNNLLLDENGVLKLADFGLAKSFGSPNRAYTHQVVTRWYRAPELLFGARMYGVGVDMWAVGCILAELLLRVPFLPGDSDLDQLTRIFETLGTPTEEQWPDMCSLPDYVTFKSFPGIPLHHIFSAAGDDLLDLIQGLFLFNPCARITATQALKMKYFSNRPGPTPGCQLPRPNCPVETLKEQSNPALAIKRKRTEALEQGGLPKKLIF

`Clc1cc(NCC2CC2)c2ncc(-c3ccc4[nH]ncc4c3)n2n1` [compound 2, 6-Chloro-N-(cyclopropylmethyl)-3-(1H-indazol-5-yl)imidazo[1,2-b]pyridazin-8-amine]: the remaining binding at 1 µM at BMX was 96%; in [1], 92%; at PDGFRB, 1.3%; on TNIK, 80%; on EGFR(T790M) it was 92%; on PRKX it was 91%. In addition, the remaining binding at 1 µM in [2] stood at 83%; on NEK11, 88%; on CDK7 it was 68%.
Turning to `O=C(CN1CCOCC1)N[C@H]1CC[C@H](Nc2cc(Cl)nn3c(-c4ccc5[nH]ncc5c4)cnc23)CC1` [compound 26], the remaining binding at 1 µM on BMX stood at 92%; in [1], 56%; at PDGFRB it was 0.05%; on TNIK, 47%; at EGFR(T790M), 100%; on PRKX, 80%. In addition, the remaining binding at 1 µM in [2] came to 59%; at NEK11, 100%; on CDK7, 16%. The inhibition at 1 µM on PDGFRB (read-out: Probe binding inhibited) is over 90%.
For `CN1CCC(CNc2cc(Cl)nn3c(-c4cc5nc(Nc6ccccc6)[nH]c5cc4F)cnc23)CC1` [compound 31, 6-Chloro-3-(6-fluoro-2-(phenylamino)-1H-benzo[d]imidazol-5-yl)-N-((1-methylpiperidin-4-yl)methyl)imidazo[1,2-b]pyridazin-8-amine], the remaining binding at 1 µM at BMX worked out at 100%; in test [1], 88%; at PDGFRB, 56%; on TNIK, 97%; on EGFR(T790M), 100%; on PRKX it was 100%. Besides, the remaining binding at 1 µM in test [2] was 96%; at NEK11, 92%; on CDK7 it was 61%.
